Laboratory results taken from ChEMBL document CHEMBL1201862, “PubChem BioAssay data set” (2004).
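48-hour exposure; five concentrations; linearly interpolated endpoints. Here, GI50 denotes the concentration required for 50% inhibition of growth.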 Calls of active or inactive are those of the source. Rule as the data show it: active = GI50 up to about 1.1 µM and inactive = higher.

Assays:
Test in all cases: NCI anticancer screen, dose series, 48 h
OVCAR-8 = tested on: OVCAR-8
M14 = tested on: M14
CCRF-CEM = tested on: CCRF-CEM
HOP-62 = tested on: HOP-62
LOX IMVI = tested on: LOX IMVI
MCF7 = tested on: MCF7
MOLT-4 = tested on: MOLT-4
OVCAR-4 = tested on: OVCAR-4
SNB-75 = tested on: SNB-75
SK-OV-3 = tested on: SK-OV-3
SK-MEL-5 = tested on: SK-MEL-5
A549 = tested on: A549
NCI-H460 = tested on: NCI-H460
K562 = tested on: K562
NCI-H226 = tested on: NCI-H226
MDA-MB-435 = tested on: MDA-MB-435
SK-MEL-2 = tested on: SK-MEL-2
HL-60 = tested on: HL-60
CAKI-1 = tested on: CAKI-1
Malme-3M = tested on: Malme-3M
MDA-MB-231 = tested on: MDA-MB-231
SF-539 = tested on: SF-539
UO-31 = tested on: UO-31
EKVX = tested on: EKVX
DU-145 = tested on: DU-145
HT-29 = tested on: HT-29
UACC-257 = tested on: UACC-257
SN12C = tested on: SN12C
MDA-N = tested on: MDA-N
SF-268 = tested on: SF-268
OVCAR-5 = tested on: OVCAR-5
HCT-15 = tested on: HCT-15
NCI-H23 = tested on: NCI-H23
TK-10 = tested on: TK-10
HCC 2998 = tested on: HCC 2998
IGROV-1 = tested on: IGROV-1
SK-MEL-28 = tested on: SK-MEL-28
OVCAR-3 = tested on: OVCAR-3
KM12 = tested on: KM12
RPMI-8226 = tested on: RPMI-8226
ACHN = tested on: ACHN
HOP-92 = tested on: HOP-92
COLO 205 = tested on: COLO 205
U-251 = tested on: U-251
NCI/ADR-RES = tested on: NCI/ADR-RES
BT-549 = tested on: BT-549
786-0 = tested on: 786-0
SR = tested on: SR
T47D = tested on: T47D
A498 = tested on: A498
SF-295 = tested on: SF-295
SW-620 = tested on: SW-620
NCI-H522 = tested on: NCI-H522
UACC-62 = tested on: UACC-62
PC-3 = tested on: PC-3
HCT-116 = tested on: HCT-116
Hs-578T = tested on: Hs-578T
SNB-19 = tested on: SNB-19

Measured: GI50

C=C1CC(Cn2ccc(=O)[nH]c2=O)(c2ccc(Cl)cc2)OC1=O (centres undefined)
active: K562 0.631 µM | NCI-H522 0.839 µM
inactive: OVCAR-8 7.87 µM | M14 3.56 µM | CCRF-CEM 1.63 µM | HOP-62 18.2 µM | LOX IMVI 2.14 µM | MCF7 1.87 µM | MOLT-4 1.78 µM | OVCAR-4 1.88 µM | SNB-75 15.1 µM | SK-OV-3 15 µM | SK-MEL-5 3.05 µM | A549 16.9 µM | NCI-H460 9.53 µM | NCI-H226 22.9 µM | MDA-MB-435 8.15 µM | SK-MEL-2 5.65 µM | HL-60 8.47 µM | CAKI-1 2.42 µM | Malme-3M 2.46 µM | MDA-MB-231 14.6 µM | SF-539 15.6 µM | UO-31 18 µM | EKVX 16.4 µM | DU-145 9.53 µM | HT-29 5.41 µM | UACC-257 3.58 µM | SN12C 11.6 µM | MDA-N 4.58 µM | SF-268 19.8 µM | OVCAR-5 15.7 µM | NCI-H23 5.48 µM | TK-10 1.57 µM | HCC 2998 13.9 µM | IGROV-1 2.86 µM | SK-MEL-28 4.3 µM | OVCAR-3 7.1 µM | KM12 14 µM | RPMI-8226 1.28 µM | ACHN 5.15 µM | HOP-92 2.07 µM | COLO 205 1.73 µM | U-251 17.7 µM | NCI/ADR-RES 4.56 µM | BT-549 4.1 µM | 786-0 2.04 µM | SR 2.02 µM | T47D 3.03 µM | A498 16.4 µM | SF-295 18.8 µM | SW-620 1.83 µM | UACC-62 5.15 µM | PC-3 6.64 µM | HCT-116 2.3 µM | Hs-578T 10.5 µM | SNB-19 31.4 µM
2.45 µM: HCT-15

N#C[C@@]12CCCC(=O)[C@@H]1[C@H]1CCC[C@H]12
16.3 µM: HCT-15
inactive: OVCAR-8 21.6 µM | M14 12.9 µM | CCRF-CEM 16.6 µM | HOP-62 15.2 µM | LOX IMVI 14.4 µM | MCF7 16.4 µM | MOLT-4 21.2 µM | OVCAR-4 21.3 µM | SNB-75 13.7 µM | SK-OV-3 14.7 µM | SK-MEL-5 15.8 µM | A549 16.7 µM | NCI-H460 16.6 µM | K562 17.7 µM | NCI-H226 20.7 µM | MDA-MB-435 17.1 µM | SK-MEL-2 16.9 µM | HL-60 8.22 µM | CAKI-1 16.3 µM | Malme-3M 13.6 µM | MDA-MB-231 14.6 µM | SF-539 23.7 µM | UO-31 16.1 µM | EKVX 13.2 µM | DU-145 14.9 µM | HT-29 19.7 µM | UACC-257 20.2 µM | SN12C 16.4 µM | MDA-N 18.8 µM | OVCAR-5 9.46 µM | NCI-H23 16.1 µM | TK-10 19.9 µM | HCC 2998 15.1 µM | IGROV-1 16.5 µM | SK-MEL-28 17.7 µM | OVCAR-3 10.3 µM | KM12 13.3 µM | RPMI-8226 11 µM | ACHN 17.7 µM | HOP-92 11.5 µM | COLO 205 20 µM | U-251 17.2 µM | NCI/ADR-RES 22.5 µM | BT-549 17.9 µM | 786-0 14.7 µM | SR 26.1 µM | T47D 20.9 µM | A498 17.1 µM | SF-295 24.7 µM | SW-620 20.6 µM | UACC-62 22.6 µM | PC-3 13.9 µM | HCT-116 15.5 µM | Hs-578T 31.3 µM | SNB-19 21.7 µM
